Columns and labels:
[1] = test system: β-Glucosidase derived from almond; assay: Reactivity toward various isoflavone glycosides (HPLC); format: biochemical; design: unit not given here; details: 55 °C, pH 4.0
How it was run: (§1)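 Enzymes at 0.75 AU/mL in pH 4.0 acetate buffer were reacted at 55° C with individual isoflavone glycosides (substrate stock 2 mM in methanol) in 20 mM acetate pH 4.0. Aglycone release followed at 0, 1, 3 and 6 h: ethanol-quenched, ODS HPLC with UV 260 nm, quantified against calibration curves.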

[2] = test system: β-Xylosidase derived from pectinase G; assay: as above; format: biochemical; design: unit not given here; details: 55 °C, pH 4.0
How it was run: as §1

Crude diglycosidase = assay: Examination of substrate concentration in the conversion into isoflavone aglycons by diglycosidase using soybean materials; format: biochemical, Penicillium multicolor IAM7153;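 for Decomposition efficiency: ratio of each glycoside/aglycon within its isoflavone family: percent of the isoflavone family total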
How it was run: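 Soybean materials (roasted soy flour, soymilk, defatted soybean, concentrated soy protein) at 2–30% (w/v) in 20 mM acetate pH 4.0 were reacted with crude diglycosidase at 55° C with shaking; enzyme solution added was 1.88 AU/mL. Samples taken at 0, 1, 3 and 6 h were ethanol-extracted and analyzed by HPLC.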

O=c1c(-c2ccc(O)cc2)coc2cc(O[C@@H]3O[C@H](CO)[C@@H](O)[C@H](O)[C@H]3O)ccc12 [daidzin]
aglycon ([1]; Reaction time 0 h): 0.9 | glucoside ([1]; Reaction time 0 h): 99.1 | aglycon ([1]; Reaction time 1 h): 9.1 | glucoside ([1]; Reaction time 1 h): 90.9 | aglycon ([1]; Reaction time 3 h): 10.8 | glucoside ([1]; Reaction time 3 h): 89.2 | aglycon ([1]; Reaction time 6 h): 11.3 | glucoside ([1]; Reaction time 6 h): 88.7 | aglycon ([2]; Reaction time 0 h): 0.9 | glucoside ([2]; Reaction time 0 h): 99.1 | aglycon ([2]; Reaction time 1 h): 9.1 | glucoside ([2]; Reaction time 1 h): 90.9 | aglycon ([2]; Reaction time 3 h): 24 | glucoside ([2]; Reaction time 3 h): 76 | aglycon ([2]; Reaction time 6 h): 42.1 | glucoside ([2]; Reaction time 6 h): 57.9 | Decomposition efficiency: ratio of each glycoside/aglycon within its isoflavone family (Crude diglycosidase; roasted soy flour, substrate concentration 2%, heat treatment of enzyme no, reaction time 0 h): 30.2% | Decomposition efficiency: ratio of each glycoside/aglycon within its isoflavone family (Crude diglycosidase; roasted soy flour, substrate concentration 2%, heat treatment of enzyme no, reaction time 1 h): not detected | Decomposition efficiency: ratio of each glycoside/aglycon within its isoflavone family (Crude diglycosidase; roasted soy flour, substrate concentration 2%, heat treatment of enzyme no, reaction time 3 h): not detected | Decomposition efficiency: ratio of each glycoside/aglycon within its isoflavone family (Crude diglycosidase; roasted soy flour, substrate concentration 2%, heat treatment of enzyme no, reaction time 6 h): not detected | Decomposition efficiency: ratio of each glycoside/aglycon within its isoflavone family (Crude diglycosidase; roasted soy flour, substrate concentration 2%, heat treatment of enzyme yes, reaction time 6 h): 46.6% | Decomposition efficiency: ratio of each glycoside/aglycon within its isoflavone family (Crude diglycosidase; roasted soy flour, substrate concentration 5%, heat treatment of enzyme no, reaction time 0 h): 46.1% | Decomposition efficiency: ratio of each glycoside/aglycon within its isoflavone family (Crude diglycosidase; roasted soy flour, substrate concentration 5%, heat treatment of enzyme no, reaction time 1 h): not detected | Decomposition efficiency: ratio of each glycoside/aglycon within its isoflavone family (Crude diglycosidase; roasted soy flour, substrate concentration 5%, heat treatment of enzyme no, reaction time 3 h): not detected | Decomposition efficiency: ratio of each glycoside/aglycon within its isoflavone family (Crude diglycosidase; roasted soy flour, substrate concentration 5%, heat treatment of enzyme no, reaction time 6 h): not detected | Decomposition efficiency: ratio of each glycoside/aglycon within its isoflavone family (Crude diglycosidase; roasted soy flour, substrate concentration 5%, heat treatment of enzyme yes, reaction time 6 h): 46.1% | Decomposition efficiency: ratio of each glycoside/aglycon within its isoflavone family (Crude diglycosidase; roasted soy flour, substrate concentration 10%, heat treatment of enzyme no, reaction time 0 h): 60.1% | Decomposition efficiency: ratio of each glycoside/aglycon within its isoflavone family (Crude diglycosidase; roasted soy flour, substrate concentration 10%, heat treatment of enzyme no, reaction time 1 h): not detected | Decomposition efficiency: ratio of each glycoside/aglycon within its isoflavone family (Crude diglycosidase; roasted soy flour, substrate concentration 10%, heat treatment of enzyme no, reaction time 3 h): not detected | Decomposition efficiency: ratio of each glycoside/aglycon within its isoflavone family (Crude diglycosidase; roasted soy flour, substrate concentration 10%, heat treatment of enzyme no, reaction time 6 h): not detected | Decomposition efficiency: ratio of each glycoside/aglycon within its isoflavone family (Crude diglycosidase; roasted soy flour, substrate concentration 10%, heat treatment of enzyme yes, reaction time 6 h): 47.5% | Decomposition efficiency: ratio of each glycoside/aglycon within its isoflavone family (Crude diglycosidase; roasted soy flour, substrate concentration 20%, heat treatment of enzyme no, reaction time 0 h): 50.3% | Decomposition efficiency: ratio of each glycoside/aglycon within its isoflavone family (Crude diglycosidase; roasted soy flour, substrate concentration 20%, heat treatment of enzyme no, reaction time 1 h): not detected | Decomposition efficiency: ratio of each glycoside/aglycon within its isoflavone family (Crude diglycosidase; roasted soy flour, substrate concentration 20%, heat treatment of enzyme no, reaction time 3 h): not detected | Decomposition efficiency: ratio of each glycoside/aglycon within its isoflavone family (Crude diglycosidase; roasted soy flour, substrate concentration 20%, heat treatment of enzyme no, reaction time 6 h): not detected | Decomposition efficiency: ratio of each glycoside/aglycon within its isoflavone family (Crude diglycosidase; roasted soy flour, substrate concentration 20%, heat treatment of enzyme yes, reaction time 6 h): 48.6% | Decomposition efficiency: ratio of each glycoside/aglycon within its isoflavone family (Crude diglycosidase; roasted soy flour, substrate concentration 30%, heat treatment of enzyme no, reaction time 0 h): 47.7% | Decomposition efficiency: ratio of each glycoside/aglycon within its isoflavone family (Crude diglycosidase; roasted soy flour, substrate concentration 30%, heat treatment of enzyme no, reaction time 1 h): not detected | Decomposition efficiency: ratio of each glycoside/aglycon within its isoflavone family (Crude diglycosidase; roasted soy flour, substrate concentration 30%, heat treatment of enzyme no, reaction time 3 h): not detected | Decomposition efficiency: ratio of each glycoside/aglycon within its isoflavone family (Crude diglycosidase; roasted soy flour, substrate concentration 30%, heat treatment of enzyme no, reaction time 6 h): not detected | Decomposition efficiency: ratio of each glycoside/aglycon within its isoflavone family (Crude diglycosidase; roasted soy flour, substrate concentration 30%, heat treatment of enzyme yes, reaction time 6 h): 49.0% | Decomposition efficiency: ratio of each glycoside/aglycon within its isoflavone family (Crude diglycosidase; soymilk, substrate concentration 2%, heat treatment of enzyme no, reaction time 0 h): 53.5% | Decomposition efficiency: ratio of each glycoside/aglycon within its isoflavone family (Crude diglycosidase; soymilk, substrate concentration 2%, heat treatment of enzyme no, reaction time 1 h): not detected | Decomposition efficiency: ratio of each glycoside/aglycon within its isoflavone family (Crude diglycosidase; soymilk, substrate concentration 2%, heat treatment of enzyme no, reaction time 3 h): not detected | Decomposition efficiency: ratio of each glycoside/aglycon within its isoflavone family (Crude diglycosidase; soymilk, substrate concentration 2%, heat treatment of enzyme no, reaction time 6 h): not detected | Decomposition efficiency: ratio of each glycoside/aglycon within its isoflavone family (Crude diglycosidase; soymilk, substrate concentration 2%, heat treatment of enzyme yes, reaction time 6 h): 39.8% | Decomposition efficiency: ratio of each glycoside/aglycon within its isoflavone family (Crude diglycosidase; soymilk, substrate concentration 5%, heat treatment of enzyme no, reaction time 0 h): 34.2% | Decomposition efficiency: ratio of each glycoside/aglycon within its isoflavone family (Crude diglycosidase; soymilk, substrate concentration 5%, heat treatment of enzyme no, reaction time 1 h): not detected | Decomposition efficiency: ratio of each glycoside/aglycon within its isoflavone family (Crude diglycosidase; soymilk, substrate concentration 5%, heat treatment of enzyme no, reaction time 3 h): not detected | Decomposition efficiency: ratio of each glycoside/aglycon within its isoflavone family (Crude diglycosidase; soymilk, substrate concentration 5%, heat treatment of enzyme no, reaction time 6 h): not detected | Decomposition efficiency: ratio of each glycoside/aglycon within its isoflavone family (Crude diglycosidase; soymilk, substrate concentration 5%, heat treatment of enzyme yes, reaction time 6 h): 40.5% | Decomposition efficiency: ratio of each glycoside/aglycon within its isoflavone family (Crude diglycosidase; soymilk, substrate concentration 10%, heat treatment of enzyme no, reaction time 0 h): 34.6% | Decomposition efficiency: ratio of each glycoside/aglycon within its isoflavone family (Crude diglycosidase; soymilk, substrate concentration 10%, heat treatment of enzyme no, reaction time 1 h): not detected | Decomposition efficiency: ratio of each glycoside/aglycon within its isoflavone family (Crude diglycosidase; soymilk, substrate concentration 10%, heat treatment of enzyme no, reaction time 3 h): not detected | Decomposition efficiency: ratio of each glycoside/aglycon within its isoflavone family (Crude diglycosidase; soymilk, substrate concentration 10%, heat treatment of enzyme no, reaction time 6 h): not detected | Decomposition efficiency: ratio of each glycoside/aglycon within its isoflavone family (Crude diglycosidase; soymilk, substrate concentration 10%, heat treatment of enzyme yes, reaction time 6 h): 39.4% | Decomposition efficiency: ratio of each glycoside/aglycon within its isoflavone family (Crude diglycosidase; soymilk, substrate concentration 20%, heat treatment of enzyme no, reaction time 0 h): 34.1% | Decomposition efficiency: ratio of each glycoside/aglycon within its isoflavone family (Crude diglycosidase; soymilk, substrate concentration 20%, heat treatment of enzyme no, reaction time 1 h): not detected | Decomposition efficiency: ratio of each glycoside/aglycon within its isoflavone family (Crude diglycosidase; soymilk, substrate concentration 20%, heat treatment of enzyme no, reaction time 3 h): not detected | Decomposition efficiency: ratio of each glycoside/aglycon within its isoflavone family (Crude diglycosidase; soymilk, substrate concentration 20%, heat treatment of enzyme no, reaction time 6 h): not detected | Decomposition efficiency: ratio of each glycoside/aglycon within its isoflavone family (Crude diglycosidase; soymilk, substrate concentration 20%, heat treatment of enzyme yes, reaction time 6 h): 39.8% | Decomposition efficiency: ratio of each glycoside/aglycon within its isoflavone family (Crude diglycosidase; soymilk, substrate concentration 30%, heat treatment of enzyme no, reaction time 0 h): 34.9% | Decomposition efficiency: ratio of each glycoside/aglycon within its isoflavone family (Crude diglycosidase; soymilk, substrate concentration 30%, heat treatment of enzyme no, reaction time 1 h): not detected | Decomposition efficiency: ratio of each glycoside/aglycon within its isoflavone family (Crude diglycosidase; soymilk, substrate concentration 30%, heat treatment of enzyme no, reaction time 3 h): not detected | Decomposition efficiency: ratio of each glycoside/aglycon within its isoflavone family (Crude diglycosidase; soymilk, substrate concentration 30%, heat treatment of enzyme no, reaction time 6 h): not detected | Decomposition efficiency: ratio of each glycoside/aglycon within its isoflavone family (Crude diglycosidase; soymilk, substrate concentration 30%, heat treatment of enzyme yes, reaction time 6 h): 40.0% | Decomposition efficiency of daidzin family in defatted soybean (Crude diglycosidase; substrate concentration 2%, heat treatment of enzyme no, reaction time 0 h): 42.3 | Decomposition efficiency of daidzin family in defatted soybean (Crude diglycosidase; substrate concentration 2%, heat treatment of enzyme no, reaction time 1 h): not detected | Decomposition efficiency of daidzin family in defatted soybean (Crude diglycosidase; substrate concentration 2%, heat treatment of enzyme no, reaction time 3 h): not detected | Decomposition efficiency of daidzin family in defatted soybean (Crude diglycosidase; substrate concentration 2%, heat treatment of enzyme no, reaction time 6 h): not detected | Decomposition efficiency of daidzin family in defatted soybean (Crude diglycosidase; substrate concentration 2%, heat treatment of enzyme yes, reaction time 6 h): 43.7 | Decomposition efficiency of daidzin family in defatted soybean (Crude diglycosidase; substrate concentration 5%, heat treatment of enzyme no, reaction time 0 h): 44.0 | Decomposition efficiency of daidzin family in defatted soybean (Crude diglycosidase; substrate concentration 5%, heat treatment of enzyme no, reaction time 1 h): not detected | Decomposition efficiency of daidzin family in defatted soybean (Crude diglycosidase; substrate concentration 5%, heat treatment of enzyme no, reaction time 3 h): not detected | Decomposition efficiency of daidzin family in defatted soybean (Crude diglycosidase; substrate concentration 5%, heat treatment of enzyme no, reaction time 6 h): not detected | Decomposition efficiency of daidzin family in defatted soybean (Crude diglycosidase; substrate concentration 5%, heat treatment of enzyme yes, reaction time 6 h): 45.8 | Decomposition efficiency of daidzin family in defatted soybean (Crude diglycosidase; substrate concentration 10%, heat treatment of enzyme no, reaction time 0 h): 45.6 | Decomposition efficiency of daidzin family in defatted soybean (Crude diglycosidase; substrate concentration 10%, heat treatment of enzyme no, reaction time 1 h): not detected | Decomposition efficiency of daidzin family in defatted soybean (Crude diglycosidase; substrate concentration 10%, heat treatment of enzyme no, reaction time 3 h): not detected | Decomposition efficiency of daidzin family in defatted soybean (Crude diglycosidase; substrate concentration 10%, heat treatment of enzyme no, reaction time 6 h): not detected | Decomposition efficiency of daidzin family in defatted soybean (Crude diglycosidase; substrate concentration 10%, heat treatment of enzyme yes, reaction time 6 h): 47.5

From patent US7118895B2, “Process for producing aglycon by using diglycosidase and flavor-improved food containing the aglycon and converting agent to be used in the process” (Amano Enzyme Inc., priority 2000, dated 2006)
